Measurements: PubChem BioAssay AID1259407 (Chemical Carcinogenesis Research Information System (CCRIS), 2018)
Activity calls are given as the source filed them. How the calls were made is not given here.

Test system: CCRIS mutagenicity, Ames/micronucleus/aberration tests
Assay: CCRIS mutagenicity studies
Settings: Test System: AMES SALMONELLA TYPHIMURIUM, Method: PREINCUBATION

Measured: mutagenic call

CCCCNCC
inactive: Strain/Indicator: TA98, Metabolic Activation: HAMSTER, LIVER, S-9, AROCLOR 1254 (10%) inactive; negative | Strain/Indicator: TA98, Metabolic Activation: NONE inactive; negative | Strain/Indicator: TA98, Metabolic Activation: RAT, LIVER, S-9, AROCLOR 1254 (10%) inactive; negative | Strain/Indicator: TA100, Metabolic Activation: HAMSTER, LIVER, S-9, AROCLOR 1254 (10%) inactive; negative | Strain/Indicator: TA100, Metabolic Activation: NONE inactive; negative | Strain/Indicator: TA100, Metabolic Activation: RAT, LIVER, S-9, AROCLOR 1254 (10%) inactive; negative | Strain/Indicator: TA1535, Metabolic Activation: HAMSTER, LIVER, S-9, AROCLOR 1254 (10%) inactive; negative | Strain/Indicator: TA1535, Metabolic Activation: NONE inactive; negative | Strain/Indicator: TA1535, Metabolic Activation: RAT, LIVER, S-9, AROCLOR 1254 (10%) inactive; negative | Strain/Indicator: TA1537, Metabolic Activation: HAMSTER, LIVER, S-9, AROCLOR 1254 (10%) inactive; negative | Strain/Indicator: TA1537, Metabolic Activation: NONE inactive; negative | Strain/Indicator: TA1537, Metabolic Activation: RAT, LIVER, S-9, AROCLOR 1254 (10%) inactive; negative
